Assay results: patent US8163776B2, “Method of immunomodulation using thione-forming disulfides” (Grassetti family Trust, priority 2001, dated 2012)
Several values for one entry are separate records, joined by “and”; a condition that tells them apart may be missing. Identical values can stand only once.

What was measured:
[1] = system: spleen T cells, B cells and NK cells; experiment: Immunophenotyping of splenocytes by flow cytometry; assay type: in vivo, BALB/c mice
Method: In general, the immunophenotyping technique consisted briefly of isolating cells from the peripheral blood or an organ (spleen or thymus), labeling them with a panel of antibodies specific for certain antigens of the membrane, and allowing to quantify the different populations. Analysis was performed by flow cytometry since antibodies were conjugated with a fluorochrome (Longbardi, Givan, A., 1994, Flow cytometry. First principles, Wiley-Liss Inc. New York.).
To immunophenotype immune cells, splenocytes were diluted to a concentration of […]. A total of 1×10^6 cells were distributed in a V-shape 96 well plate. A total of 7 wells were necessary for each sample. Plates were centrifuged 5 minutes at 1200 rpm. Supernatant was discarded and pellet were vortexed. Monoclonal antibodies were distributed in each wells according to the following set up:
The antibodies used are commercially available from Becton Dickinson (San Jose, Calif.). The cells were incubated with the antibodies for 30 minutes on ice, washed three times with D-PBS+1% BSA, spun at 1200 rpm for 5 minutes using a multichannel pipette, suspended in 1 ml of paraformaldehyde 2% (v/v), and transferred into flow cytometry tubes. Samples were analyzed using EPICS XL from Beckman Coulter flow cytometer. Results were expressed as percentage of the population expressing the specific surface antigen. Live population of cells were gated upon using forward scatter (FS) vs. side scatter (SS) to distinguish live cells from dead cells. A total of 10,000 gated cells were counted for statistical relevance. The FL1 band pass filter (set at 525 nm) was used to detect fluoroscein isothiocyanate (FITC) fluorescence. The FL2 band pass filter (set at 575 nm) was used to detect phycoerythrin (PE) fluorescence. The cursors are set accordingly to delineate the positive region. This region should be relative to 1% of the unstained control (cell control). Results are expressed as % of positive population expressing the specific surface antigens. Student's T test was performed between the control group and the treated group. The p value was calculated for statistical significance.

lymphocytes = experiment: Mitogenic proliferation of splenocytes (3H-thymidine incorporation); assay type: in vivo, BALB/c mice
Method: Splenocytes were diluted to a concentration of 1×10^6 cells/ml in complete RPMI media. Aliquots of 100 μl were transferred into a 96 well flat bottom plate. Mitogen stock solutions were prepared at a concentration of 1 mg/ml in D-PBS and frozen at −20° C. Working solution were prepared freshly in complete RPMI media at the following concentration (10×): 500 μg/ml PHA, 50 μg/ml concanavalin A (con A), and 50 μg/ml LPS. Aliquots of 100 μl of each mitogens were transferred in triplicate in the corresponding wells. Final concentration (1×) in each well was 50 μg/ml PHA, 5 μg/ml con A, and 5 μg/ml LPS. For negative control, 100 μl of complete RPMI media was added in triplicate, instead of the mitogens. Cells were incubated for a total of 72 hours in 37° C., 5% CO2, humidified incubator. Twenty hours before the end of the incubation, 1 μCi per well of ^3H-thymidine was added to each well. Cells were harvested using a Harvester® 96 from Tomtec. Filters were transferred into scintillation vials. Scintillation liquid, 4 ml was added to each vial. Radioactivity was counted using Beckman LS-6500 Beta counter. The results were expressed in CPM. The mean and standard deviation of triplicate samples are calculated. Results are expressed as stimulation index (SI) as follows:
[formula] • where experimental value=with mitogens (PHA, ConA and LPS) and control value=with RPMI. For each mitogen, results were compared and Student's T test was performed between the control group and the treated group. The p value was calculated for statistical significance.
The lymphoproliferative response is a widely studied function of T and B lymphocytes. Three different mitogens with different specificity for different lymphocyte subsets were used. PHA and ConA are standard mitogens that stimulate mice T cells and LPS is a mitogen which stimulates B cells. Results are expressed in proliferation capacity (Table 10 and FIGS. 5 and 6). […] This potential may present some therapeutic application against some immune dysfunctions where the lymphoproliferative response is impaired (e.g., viral infections).

[2] = 30 days on CPDS diet vs group 1
[3] = 30 days, n=8, arrow image = increase
[4] = Group 2, 30 days on CPDS diet, Mean ± S.D.
[5] = Group 2, 30 days on CPDS diet, individual mice
[6] = Group 6, 6 days on CPDS diet, Mean ± S.D.
[7] = Group 6, 6 days on CPDS diet, individual mice
[8] = 30 days on CPDS diet vs normal diet
[9] = 30 days on CPDS diet, Mean ± S.D.

SMILES: O=C(O)c1ccc(SSc2ccc(C(=O)O)cn2)nc1 [CPDS, 6,6′-dithiodinicotinic acid]
- B cells, variation (%) ([1]; 6 days on CPDS diet vs Group 5): −1.0%
- CD4+, variation (%) ([1]; 6 days on CPDS diet vs Group 5): −8.5%
- CD8+, variation (%) ([1]; 6 days on CPDS diet vs Group 5): −6.8%
- NK cells, variation (%) ([1]; 6 days on CPDS diet vs Group 5): 43.5%
- Ratio CD4/CD8, variation (%) ([1]; 6 days on CPDS diet vs Group 5): −1.8%
- Total T cells, variation (%) ([1]; 6 days on CPDS diet vs Group 5): −8.0%
- Immunophenotyping: B cells, effect of CPDS diet ([1]; 6 days, n=3): no significant effect
- Immunophenotyping: Ratio CD4/CD8, effect of CPDS diet ([1]; 6 days, n=3): No effect
- Immunophenotyping: T CD4+, effect of CPDS diet ([1]; 6 days, n=3): No effect
- Immunophenotyping: T CD8+, effect of CPDS diet ([1]; 6 days, n=3): No effect
- Immunophenotyping: Total T cells, effect of CPDS diet ([1]; 6 days, n=3): no significant effect
- Immunophenotyping: NK cells, effect of CPDS diet ([1]; 6 days, n=3, arrow image = increase): tendency toward an increase
- B cells, variation (%) [1, 2]: −19.9%
- CD4+, variation (%) [1, 2]: −3.9%
- CD8+, variation (%) [1, 2]: −11.0%
- NK cells, variation (%) [1, 2]: 69.4%
- Ratio CD4/CD8, variation (%) [1, 2]: 7.7%
- Total T cells, variation (%) [1, 2]: −1.2%
- Immunophenotyping: T CD4+, effect of CPDS diet ([1]; 30 days, n=8): No effect
- Immunophenotyping: Total T cells, effect of CPDS diet ([1]; 30 days, n=8): No effect
- Immunophenotyping: T CD8+, effect of CPDS diet ([1]; 30 days, n=8, arrow image = decrease): tendency to decrease
- Immunophenotyping: Ratio CD4/CD8, effect of CPDS diet [1, 3]: tendency
- B cells (%) [1, 4]: 23.4 ± 2.0%
- CD4+ (%) [1, 4]: 23.6 ± 2.3%
- CD8+ (%) [1, 4]: 9.6 ± 1.2%
- NK cells (%) [1, 4]: 6.9 ± 4.9%
- Ratio CD4/CD8 [1, 4]: 2.49 ± 0.26
- Total T cells (%) [1, 4]: 38.4 ± 2.9%
- B cells (%) [1, 5]: 24.0% and 25.9% and 25.0% and 21.5% and 23.8% and 22.3% and 24.8% and 20.1%
- CD4+ (%) [1, 5]: 21.7% (2×) and 24.0% and 28.3% and 25.7% and 23.2% and 22.2% and 22.1%
- CD8+ (%) [1, 5]: 8.5% and 9.58% and 10.2% and 11.5% and 9.66% and 7.92% and 8.54% and 10.5%
- NK cells (%) [1, 5]: 16.8% and 4.8% (2×) and 11.9% and 3.72% and 2.6% and 5.56% and 4.76%
- Ratio CD4/CD8 [1, 5]: 2.55 and 2.27 and 2.35 and 2.46 and 2.66 and 2.93 and 2.60 and 2.1
- Total T cells (%) [1, 5]: 35.8% and 36.8% and 39.6% and 44.6% and 39.8% and 37.5% and 36.0% and 37.4%
- B cells (%) [1, 6]: 50.3 ± 0.5%
- CD4+ (%) [1, 6]: 25.8 ± 2.3%
- CD8+ (%) [1, 6]: 13.6 ± 0.9%
- NK cells (%) [1, 6]: 11.9 ± 2.7%
- Ratio CD4/CD8 [1, 6]: 1.90 ± 0.06
- Total T cells (%) [1, 6]: 41.4 ± 2.5%
- B cells (%) [1, 7]: 49.8% and 50.7% and 50.3%
- CD4+ (%) [1, 7]: 26.4% and 23.3% and 27.8%
- CD8+ (%) [1, 7]: 14.0% and 12.6% and 14.2%
- NK cells (%) [1, 7]: 9.7% and 14.1% and 9.1%
- Ratio CD4/CD8 [1, 7]: 1.89 and 1.85 and 1.96
- Total T cells (%) [1, 7]: 42.8% and 38.6% and 42.9%
- Mitogenic Proliferation (SI), LPS, effect of CPDS diet (lymphocytes; 6 days, n=3): No effect
- Mitogenic Proliferation (SI), PHA, effect of CPDS diet (lymphocytes; 6 days, n=3): No effect
- Mitogenic Proliferation, LPS (lymphocytes; 30 days on CPDS diet (samples G2-1 to G2-8), individual mice, 5 μg/ml LPS): 3799.3 and 1426.0 and 4760.0 and 4304.7 and 842.0 and 1407.3 and 2438.0 and 2039.3
- Mitogenic Proliferation, CON A (lymphocytes; 30 days on CPDS diet (samples G2-1 to G2-8), individual mice, 5 μg/ml con A): 6928.7 and 2621.3 and 11240.7 and 8041.3 and 915.3 and 1023.3 and 3308.7 and 4993.3
- Mitogenic Proliferation, PHA (lymphocytes; 30 days on CPDS diet (samples G2-1 to G2-8), individual mice, 50 μg/ml PHA): 3565.3 and 1168.0 and 2175.3 and 2300.0 and 603.3 and 717.3 and 1652.6 and 886.0
- Mitogenic Proliferation, No stimulation (lymphocytes; 30 days on CPDS diet (samples G2-1 to G2-8), individual mice, no unit in table, method: CPM): 78.0 and 69.3 and 66.7 and 82.0 and 57.3 and 72.7 and 72.0 and 58.7
- Mitogenic Proliferation, CON A, Variation(%) (lymphocytes; [8]): 210.2%
- Mitogenic Proliferation, LPS, Variation(%) (lymphocytes; [8]): 82.0%
- Mitogenic Proliferation, No stimulation, Variation(%) (lymphocytes; [8]): 0.2%
- Mitogenic Proliferation, PHA, Variation(%) (lymphocytes; [8]): 144.4%
- Mitogenic Proliferation, CON A (lymphocytes; [9]): 4984.1 ± 3641
- Mitogenic Proliferation, LPS (lymphocytes; [9]): 2627.1 ± 1475
- Mitogenic Proliferation, No stimulation (lymphocytes; [9]): 69.6 ± 8
- Mitogenic Proliferation, PHA (lymphocytes; [9]): 1633.4 ± 1010
- Mitogenic Proliferation (SI), LPS, effect of CPDS diet (lymphocytes; [3]): tendency to increase
- Mitogenic Proliferation, CON A (lymphocytes; [6]): 4441.8 ± 1733
- Mitogenic Proliferation, LPS (lymphocytes; [6]): 937.9 ± 232
- Mitogenic Proliferation, No stimulation (lymphocytes; [6]): 50.5 ± 23
- Mitogenic Proliferation, PHA (lymphocytes; [6]): 205.3 ± 74
- Mitogenic Proliferation, LPS (lymphocytes; Group 6, 6 days on CPDS diet, individual mice, 5 μg/ml LPS, no unit in table, method: CPM): 1052.0 and 670.0 and 1091.3
- Mitogenic Proliferation, CON A (lymphocytes; Group 6, 6 days on CPDS diet, individual mice, 5 μg/ml con A, no unit in table, method: CPM): 4876.7 and 2532.0 and 5916.7
- Mitogenic Proliferation, PHA (lymphocytes; Group 6, 6 days on CPDS diet, individual mice, 50 μg/ml PHA, no unit in table, method: CPM): 237.3 and 120.0 and 258.7
- Mitogenic Proliferation, No stimulation (lymphocytes; Group 6, 6 days on CPDS diet, individual mice, no unit in table, method: CPM): 78.0 and 34.7 and 38.7
- Proliferation with all three mitogens (PHA, ConA, LPS), in words (lymphocytes; after 6 days of treatment with CPDS): tendency towards an increase
